Results: PubChem BioAssay AID256 (DTP/NCI, 2004)
Several values for one entry are separate records, joined by “and”; a condition that tells them apart may be missing. Identical values can stand only once. Inconclusive results and toxic doses are left out.

System: CD2F1 mice, L1210 leukemia ip, survival T/C
Assay: NCI In Vivo Anticancer Drug Screen. Data for tumor model L1210 Leukemia (intraperitoneal) in CD2F1 (CDF1) mice
Conditions: endpoint: mean survival time, higher = longer survival
Procedure, shortened: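 Tumor-bearing mice (transplanted tumor) were split into treated and vehicle control groups, and the measured endpoint of each treated group was divided by that of its vehicle controls.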

[1] = dose: 100.0 mg/kg/injection, schedule: Q04DX002 (ip), vehicle: saline with Tween-80
[2] = dose: 75.0 mg/kg/injection, schedule: Q01DX001 (ip), vehicle: saline
[3] = dose: 50.0 mg/kg/injection, schedule: Q01DX009 (ip), vehicle: saline with Tween-80
[4] = dose: 150.0 mg/kg/injection, schedule: Q01DX001 (ip), vehicle: saline
[5] = dose: 100.0 mg/kg/injection, schedule: Q04DX003 (ip), vehicle: saline
[6] = dose: 200.0 mg/kg/injection, schedule: Q04DX003 (ip), vehicle: saline
[7] = dose: 400.0 mg/kg/injection, schedule: Q04DX003 (ip), vehicle: saline
[8] = dose: 100.0 mg/kg/injection, schedule: Q04DX003 (ip), vehicle: saline with Tween-80
[9] = dose: 200.0 mg/kg/injection, schedule: Q04DX003 (ip), vehicle: saline with Tween-80
[10] = dose: 200.0 mg/kg/injection, schedule: Q04DX002 (ip), vehicle: saline with Tween-80

**Q.** `Cc1ccc(C(=O)OCCN2CCN(c3ccccc3)CC2)c([N+](=O)[O-])c1OCc1ccccc1` was tested. Which T/C (dose: 100.0 mg/kg/injection, schedule: Q04DX002 (ip), vehicle: other) did it give?
**A.** 98 % of control

**Q.** And the T/C (dose: 200.0 mg/kg/injection, schedule: Q04DX002 (ip), vehicle: other)?
**A.** 91 % of control

**Q.** What about the T/C (dose: 400.0 mg/kg/injection, schedule: Q04DX002 (ip), vehicle: other) of the same molecule?
**A.** 91 % of control

**Q.** `Cc1cc(C)c2nc(N)sc2c1` was tested. Which T/C (dose: 25.0 mg/kg/injection, schedule: Q04DX002 (ip), vehicle: saline with Tween-80) did it give?
**A.** 96 % of control

**Q.** What about the T/C (dose: 50.0 mg/kg/injection, schedule: Q04DX002 (ip), vehicle: saline with Tween-80) of the same molecule?
**A.** 93 % of control

**Q.** And the T/C [1]?
**A.** 93 % of control

**Q.** Which T/C [2] does the source give for `COc1cc(NCCCCNC(C)C)c2ncccc2c1` here?
**A.** 95 % of control

**Q.** Which T/C (dose: 12.5 mg/kg/injection, schedule: Q01DX009 (ip), vehicle: saline with Tween-80) does the source give for `C=Cc1ccncc1` here?
**A.** 91 % of control

**Q.** What about the T/C (dose: 25.0 mg/kg/injection, schedule: Q01DX009 (ip), vehicle: saline with Tween-80) of the same molecule?
**A.** 95 % of control

**Q.** And the T/C [3]?
**A.** 98 % of control

**Q.** Which T/C (dose: 12.5 mg/kg/injection, schedule: Q01DX001 (ip), vehicle: saline) does the source give for `O=[N+]([O-])c1ccc(/C=N/O)o1` here?
**A.** 93 % of control and 101 % of control

**Q.** What about the T/C (dose: 25.0 mg/kg/injection, schedule: Q01DX001 (ip), vehicle: saline) of the same molecule?
**A.** 102 % of control

**Q.** And the T/C (dose: 50.0 mg/kg/injection, schedule: Q01DX001 (ip), vehicle: saline)?
**A.** 97 % of control and 102 % of control

**Q.** And the T/C (dose: 100.0 mg/kg/injection, schedule: Q01DX001 (ip), vehicle: saline)?
**A.** 100 % of control and 101 % of control and 102 % of control

**Q.** What about the T/C [4] of the same molecule?
**A.** 100 % of control

**Q.** Which results are given for `NC(CO)CO`?
**A.** T/C [5]: 98 % of control; T/C [6]: 95 % of control; T/C [7]: 98 % of control

**Q.** For `CC1OC(c2ccccc2)OC1C` (configuration not stated), which T/C [8] is on record?
**A.** 94 % of control

**Q.** And the T/C [9]?
**A.** 92 % of control

**Q.** And the T/C (dose: 400.0 mg/kg/injection, schedule: Q04DX003 (ip), vehicle: saline with Tween-80)?
**A.** 90 % of control

**Q.** `[Co].[N-]=C=S.[N-]=C=S.[N-]=C=S.[N-]=C=S` was tested. Which T/C (dose: 25.0 mg/kg/injection, schedule: Q04DX002 (ip), vehicle: saline) did it give?
**A.** 104 % of control

**Q.** And the T/C (dose: 50.0 mg/kg/injection, schedule: Q04DX002 (ip), vehicle: saline)?
**A.** 104 % of control

**Q.** And the T/C (dose: 100.0 mg/kg/injection, schedule: Q04DX002 (ip), vehicle: saline)?
**A.** 117 % of control and 112 % of control

**Q.** Which results are given for `O=C1C=CC(=O)c2nc3c(nc21)[nH]c1ccccc13`?
**A.** T/C [2]: 101 % of control; T/C [4]: 98 % of control; T/C (dose: 300.0 mg/kg/injection, schedule: Q01DX001 (ip), vehicle: saline): 97 % of control

**Q.** With `CCCCOC(=O)c1ccc(NC(=O)Nc2ccccc2Cl)cc1` as the molecule, how does the T/C [3] read?
**A.** 89 % of control

**Q.** And the T/C (dose: 100.0 mg/kg/injection, schedule: Q01DX009 (ip), vehicle: saline with Tween-80)?
**A.** 86 % of control

**Q.** And the T/C [8]?
**A.** 91 % of control

**Q.** What about the T/C (dose: 200.0 mg/kg/injection, schedule: Q01DX009 (ip), vehicle: saline with Tween-80) of the same molecule?
**A.** 96 % of control

**Q.** And the T/C [9]?
**A.** 100 % of control

**Q.** For `Nc1nc(N)c(-c2ccc(Cl)cc2)c(COc2ccc(CCC3(CCl)OCCO3)cc2)n1`, which T/C (dose: 25.0 mg/kg/injection, schedule: Q01DX001 (ip), vehicle: saline with Tween-80) is on record?
**A.** 101 % of control

**Q.** What about the T/C (dose: 50.0 mg/kg/injection, schedule: Q01DX001 (ip), vehicle: saline with Tween-80) of the same molecule?
**A.** 101 % of control

**Q.** And the T/C (dose: 100.0 mg/kg/injection, schedule: Q01DX001 (ip), vehicle: saline with Tween-80)?
**A.** 108 % of control

**Q.** `NC(=O)CCc1ccnc2ccccc12` was tested. Which T/C [1] did it give?
**A.** 96 % of control

**Q.** And the T/C [10]?
**A.** 92 % of control

**Q.** Which results are given for `CC1CC(C)(O)CC(C(O)CC2CC(=O)NC(=O)C2)C1=O` (configuration not stated)?
**A.** T/C (dose: 0.02 mg/kg/injection, schedule: Q01DX009 (ip), vehicle: saline): 96 % of control and 102 % of control; T/C (dose: 0.04 mg/kg/injection, schedule: Q01DX009 (ip), vehicle: saline): 105 % of control and 107 % of control; T/C (dose: 0.08 mg/kg/injection, schedule: Q01DX009 (ip), vehicle: saline): 114 % of control; T/C (dose: 0.16 mg/kg/injection, schedule: Q01DX009 (ip), vehicle: saline): 117 % of control and 122 % of control

**Q.** How did the T/C [5] turn out when `c1cc[n+](CC[n+]2ccccc2)cc1` was run?
**A.** 102 % of control

**Q.** What about the T/C [6] of the same molecule?
**A.** 100 % of control

**Q.** What about the T/C [7] of the same molecule?
**A.** 111 % of control

**Q.** For `CN(C)C(=O)SCCSC(=O)N(C)C`, which T/C [1] is on record?
**A.** 106 % of control

**Q.** What about the T/C [10] of the same molecule?
**A.** 92 % of control

**Q.** What about the T/C (dose: 400.0 mg/kg/injection, schedule: Q04DX002 (ip), vehicle: saline with Tween-80) of the same molecule?
**A.** 95 % of control

**Q.** Which T/C (dose: 37.5 mg/kg/injection, schedule: Q01DX001 (ip), vehicle: saline with Tween-80) does the source give for `Cc1ccc(-c2nc3ncnc(N)c3[nH]2)cc1[N+](=O)[O-]` here?
**A.** 101 % of control

**Q.** What about the T/C (dose: 75.0 mg/kg/injection, schedule: Q01DX001 (ip), vehicle: saline with Tween-80) of the same molecule?
**A.** 90 % of control

**Q.** And the T/C (dose: 150.0 mg/kg/injection, schedule: Q01DX001 (ip), vehicle: saline with Tween-80)?
**A.** 88 % of control

**Q.** `CCOC1CC2c3ccccc3C1c1cccc[n+]12` (configuration not stated) was tested. Which T/C [5] did it give?
**A.** 104 % of control

**Q.** For `O=[N+]([O-])O.[Ho]`, which T/C (dose: 100.0 mg/kg/injection, schedule: Q01DX009 (ip), vehicle: saline) is on record?
**A.** 94 % of control
